Measured values reported in publication PMC9098870, “Integrated omics approach to unveil antifungal bacterial polyynes as acetyl-CoA acetyltransferase inhibitors” (Communications Biology, 2022).

What was measured:
MasL = target: T1, MasL ([Empedobacter] haloabium, UniProt A0A915Q9D3); assay: CoA release, fluorescent probe; progress curves, covalent inhibitor model; type: biochemical
T1 construct: gene E7V67_18950; recombinant, purified from E. coli; residues 1-394 described; tetramer in solution; reactive Cys90, His350, Cys380; tag details in supplement
T1 sequence (A0A915Q9D3 entry or part of it): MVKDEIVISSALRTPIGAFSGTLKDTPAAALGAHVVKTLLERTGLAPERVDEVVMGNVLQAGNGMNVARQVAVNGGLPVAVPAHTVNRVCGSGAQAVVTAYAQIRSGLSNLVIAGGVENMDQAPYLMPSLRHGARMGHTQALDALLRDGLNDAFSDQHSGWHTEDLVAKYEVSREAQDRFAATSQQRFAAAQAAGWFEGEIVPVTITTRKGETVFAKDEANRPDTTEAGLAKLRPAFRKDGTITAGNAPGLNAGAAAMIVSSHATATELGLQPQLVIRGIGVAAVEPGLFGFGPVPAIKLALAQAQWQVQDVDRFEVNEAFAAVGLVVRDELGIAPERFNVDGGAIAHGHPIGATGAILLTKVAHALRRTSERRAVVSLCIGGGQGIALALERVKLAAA
Description: CoA release, fluorescent probe; progress curves, covalent inhibitor model on MasL

[1] = target: MasL (acetyl-CoA acetyltransferase of Massilia sp. YMA4), apo form (Massilia sp. YMA4); assay: not stated; oligomeric state of MasL in solution; method not given
[2] = target: MasL (acetyl-CoA acetyltransferase of Massilia sp. YMA4), apo form (Massilia sp. YMA4); assay: crystal structure; X-ray crystal structures of MasL, apo and after incubation with collimonin C or D; a tetramer in the asymmetric unit (space groups P1, P2_(1), P1)
[3] = target: MasL-collimonin C complex (MasL covalently modified by collimonin C at Cys90) (Massilia sp. YMA4); assay: as above
[4] = target: MasL-collimonin D complex (MasL modified by collimonin D) (Massilia sp. YMA4); assay: as above

C#CC#CC#C/C=C/C[C@@H](O)[C@@H](O)CCCCC(=O)O [compound 1, collimonin C]
KI (inactivation) (MasL; covalent, irreversible S-alkylation of Cys90, competitive against acetyl-CoA, complex structure 1.66 Å): 297 µM

C#CC#CC#C/C=C/C[C@@H](O)[C@H](O)CCCCC(=O)O [compound 2, collimonin D]
KI (inactivation) (MasL; covalent, irreversible S-alkylation of Cys90 (by MS), competitive against acetyl-CoA, complex structure 1.40 Å): 42.8 µM

C#CC#CC#C/C=C/CCC(O)CCCCC(=O)O (centres unmarked) [compound 3, massilin A]
KI (inactivation) (MasL; covalent, adduct by mass spectrometry): 132 µM

C#CC#CC#C/C=C/CCCCCCCC(=O)O [compound 5, massilin C]
KI (inactivation) (MasL; covalent inhibitor model): 228 µM

MasL (acetyl-CoA acetyltransferase of Massilia sp. YMA4), apo form (enzyme)
stoichiometry N [1]: 4
stoichiometry N [2]: 4

MasL-collimonin C complex (MasL covalently modified by collimonin C at Cys90) (enzyme)
stoichiometry N [3]: 4

MasL-collimonin D complex (MasL modified by collimonin D) (enzyme)
stoichiometry N [4]: 4
